Values quoted from earlier work, collected in US9233169B2, “Oligomer-bis-chromonyl compound conjugates” (NEKTAR THERAPEUTICS, priority 2008, dated 2016).

Tested on: mast cell degranulation
Conditions: monkey gingiva; Nuki et al. (1975)

SMILES: O=C([O-])c1cc(=O)c2c(OCC(O)COc3cccc4oc(C(=O)[O-])cc(=O)c34)cccc2o1.[Na+].[Na+] [Cromonlyn sodium, disodium 5,5′-((2-hydroxytrimethylene)dioxy)bis(4-oxo-4H-1 benzopyran-2-carboxylate)]
- inhibition of mast cell degranulation: inhibit mast cell degranulation
